“And” between values parts separate entries of the source, which are not always exact repeats. Identical values can stand only once. Like-named read-outs stand apart in the source and are kept apart here.
Columns and labels:
Parkin ligase = molecular target: T1, Parkin ligase (Homo sapiens, UniProt O60260); test: Activity-Based Probe Assay using Ubiquitin vinyl sulfone probe (TR-FRET); assay type: biochemical; conditions: heat activated Parkin, HA-Ub-VS probe, activation EC50; read-out: Probe Assay EC50 (μM) [Example 2]
T1 sequence (O60260 1-465): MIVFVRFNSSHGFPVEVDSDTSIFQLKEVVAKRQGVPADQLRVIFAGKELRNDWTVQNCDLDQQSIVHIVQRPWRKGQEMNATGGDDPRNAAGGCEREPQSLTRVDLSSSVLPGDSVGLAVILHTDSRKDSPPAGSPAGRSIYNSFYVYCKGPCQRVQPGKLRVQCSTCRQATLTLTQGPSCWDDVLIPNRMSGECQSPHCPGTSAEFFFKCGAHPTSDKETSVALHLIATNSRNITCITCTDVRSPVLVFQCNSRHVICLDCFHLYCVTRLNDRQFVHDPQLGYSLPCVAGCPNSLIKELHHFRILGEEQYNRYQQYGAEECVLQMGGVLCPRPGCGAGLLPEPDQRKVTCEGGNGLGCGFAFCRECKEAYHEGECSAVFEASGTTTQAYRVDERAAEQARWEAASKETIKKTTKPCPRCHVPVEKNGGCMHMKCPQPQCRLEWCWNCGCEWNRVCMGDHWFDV
Outline: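 Heat-activated His-Parkin (5 min, 58 °C; 40 nM) was preincubated 15 min with compound, then reacted 60 min at 22 °C with 70 nM HA-Ub-VS in 50 mM HEPES pH 8.5, 150 mM NaCl, 0.01% Tween 20, 0.1% BSA. Probe labelling was read by anti-His-Eu/anti-HA-XL665 TR-FRET (665/615 ratio). % activation was normalized to DMSO and 100 nM control activator, then fitted with a four-parameter curve (Bottom=0, Top=100).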

HCT-116 (colon) = test: Cancer cell proliferation assay (acid phosphatase); assay type: cell-based; conditions: Table 6A, 72 hrs, read-out: HCT-116 IC50
Method: (§1) Measurement of the inhibitive effect of compounds on cancer cell proliferation was performed. Various cell lines were tested, including HCT-116 (colon); A549 (lung); TOV-21G (ovarian); Calu-6 (lung); and LS-174T (colon); and cell lines H1703 (Lung) and SKOV3 (ovarian); JEKO-1 (lymophoma); TOV-112D (ovarian) are tested. The assays were performed under the following conditions: Cells are harvested at a concentration of 4×10^4 cells/ml in media. Volumes of 100 μl/well of these cell suspensions were added to a 96 well plate using a multichannel pipette. Plates were gently agitated to ensure an even dispersion of cells over a given plate. Cells were then incubated at 37° C., 5% CO2 overnight. Following this, 100 μl of compound at varying concentrations was added to wells in triplicate. Control wells are those with 100 μl media containing 0.33% DMSO added to cell suspension (this is the equivalent volume of DMSO found in the highest concentration of drug). Plates were then gently agitated, as above, and incubated at 37° C., 5% CO2 for 72 hrs (control wells have reached 80-90% confluency). Assessment of cell proliferation in the presence of the compound was determined by the acid phosphatase assay.
(§2) Following the incubation period of 72 hrs, media was removed from the plates. Each well on the plate was washed twice with 100 μl PBS. This was then removed and 100 μl of freshly prepared phosphatase substrate (10 mM p-nitrophenol phosphate in 0.1M sodium acetate, 0.1% triton X-100, pH 5.5) was added to each well. The plates were then incubated in the dark at 37° C. for 2 hours. Colour development was monitored during this time. The enzymatic reaction was stopped by the addition of 50 μl of 1N NaOH. The plate was read in a dual beam plate reader at 405 nm with a reference wavelength of 620 nm. The absorbance reading of the latter is subtracted from the former, and the effect of the drug on cell proliferation was then measured as a percentage against the control cells (DMSO), which is taken as 0% inhibition.

TOV-21G (ovarian) = test: Cancer cell proliferation assay (acid phosphatase); assay type: cell-based; conditions: Table 6A, 72 hrs, read-out: TOV-21G IC50
Method: as §1, §2

A549 (lung) = test: Cancer cell proliferation assay (acid phosphatase); assay type: cell-based; conditions: Table 6A, 72 hrs, read-out: A549 IC50
Method: as §1, §2

LS-174T (colon) = test: Cancer cell proliferation assay (acid phosphatase); assay type: cell-based; conditions: Homo sapiens, LS174T; Table 6A; 72 hrs
Method: as §1, §2

Row | SMILES | EC50 (Parkin ligase) | IC50 (HCT-116 (colon); Homo sapiens, HCT-116, 72 h) | IC50 (TOV-21G (ovarian); Homo sapiens, TOV21G, 72 h) | IC50 (A549 (lung); Homo sapiens, A549, 72 h) | IC50 (LS-174T (colon)) | IC50 (TOV-21G (ovarian); Homo sapiens, TOV21G, 72 h, heading: TOV-21G IC50) | IC50 (HCT-116 (colon)) | IC50 (TOV-21G (ovarian)) | IC50 (A549 (lung))
1 | Cc1ccccc1C(=O)Nc1nc(-c2cccc(F)n2)nn1-c1ccc(OC(F)(F)F)cc1 [Compound 129] | 3 µM | 2400 nM | 2000 nM | 2500 nM |  |  |  |  | 
2 | Cc1ccccc1C(=O)Nc1nc(-c2ncccc2C)nn1-c1cccc(F)c1 [Compound 146] | 1 µM | 400 nM | 500 nM | 300 nM |  |  |  |  | 
3 | O=C(Nc1nc(NC(=O)c2ccncc2)n(-c2ccc(C(F)(F)F)cc2)n1)c1ccncc1 [Compound 63] | 3 µM | 2500 nM |  |  |  |  |  |  | 
4 | Cc1ccccc1C(=O)Nc1nc(NC(=O)c2ccc(F)cc2F)nn1-c1ccccc1 [Compound 150] |  | > 2500 nM | > 2500 nM |  |  |  |  |  | 
5 | Cc1ccccc1C(=O)Nc1nc(NC(=O)c2ccno2)n(-c2ccc(OC(F)(F)F)cc2)n1 [Compound 71] | 3 µM | 2500 nM |  | 2400 nM |  |  |  |  | 
6 | Cc1ccccc1C(=O)Nc1nc(NC(=O)c2ccno2)n(-c2ccc(C(F)(F)F)cc2)n1 [Compound 75] | 4 µM | 2400 nM |  | 2500 nM | 1000 nM |  |  |  | 
7 | Cc1ccccc1C(=O)Nc1nc(NC(=O)c2ccccc2C)n(-c2ccc(N3CCN(C(=O)OC(C)(C)C)CC3)cc2)n1 [Compound 59] | 3 µM | 801000 nM |  | 810000 nM |  | 938 nM |  |  | 
8 | Cc1ccccc1C(=O)Nc1nc(-c2cccc(F)n2)nn1-c1ccc(Cl)cc1 [Compound 134] | 4 µM | 2300 nM | 1800 nM | 2600 nM |  |  |  |  | 
9 | Cc1cccc(-c2nc(NC(=O)c3ccccc3C)n(-c3ccc(C(F)(F)F)cc3)n2)n1 [Compound 133] | 1 µM | 2300 nM | 1800 nM | 2500 nM |  |  |  |  | 
10 | Cc1ccccc1C(=O)Nc1nc(-c2cccc(F)n2)nn1-c1ccc(C(F)(F)F)cc1 [Compound 131] | 2 µM | 2300 nM | 2200 nM | 2300 nM |  |  |  |  | 
11 | Cc1cccc(C(=O)Nc2nc(NC(=O)c3cccc(C)c3)n(-c3ccccc3)n2)c1 [Compound F3] |  | 2000 nM | 2300 nM | 2300 nM |  |  |  |  | 
12 | Cc1cccc(-c2nc(NC(=O)c3ccccc3C)n(-c3ccc(OC(F)(F)F)cc3)n2)n1 [Compound 126] | 2 µM | 1700 nM | 1900 nM | 1400 nM | 1000 nM |  |  |  | 
13 | O=C(Nc1nc(NC(=O)c2cccnc2)n(-c2ccc(C(F)(F)F)cc2)n1)c1cccnc1 [Compound 62] | 8 µM | 2700 nM |  | 2000 nM |  |  |  |  | 
14 | O=C(Nc1nc(NC(=O)c2cccnc2)n(-c2ccc(OC(F)(F)F)cc2)n1)c1cccnc1 [Compound 61] | 12 µM and 10 µM and 13 µM | 2100 nM | 1400 nM |  |  |  |  |  | 
15 | Cc1ccccc1C(=O)Nc1nc(NC(=O)c2c(F)cc(F)cc2F)nn1-c1ccccc1 [Compound 149] |  | > 2500 nM | > 2500 nM |  |  |  |  |  | 
16 | Cc1ccccc1C(=O)Nc1nc(-c2cccc(F)n2)nn1-c1cccc(F)c1 [Compound 128] | 5 µM | 2500 nM | 2400 nM | 2500 nM |  |  |  |  | 
17 | Cc1ccccc1C(=O)Nc1nc(NCc2ccccc2)nn1-c1ccc(Cl)cc1 [Compound 108] | 1.5 µM | > 2500 nM | > 2500 nM | > 2500 nM |  |  |  |  | 
18 | Cc1ccccc1C(=O)Nc1nc(NC(=O)c2ccccc2C)n(-c2ccc(N3CCC3)cc2)n1 [Compound 64] | 8 µM | 2300 nM | 2400 nM | 2400 nM | 2600 nM |  |  |  | 
19 | Cc1ccccc1C(=O)Nc1nc(-c2cccc(F)n2)nn1-c1cccc(F)c1 [Compound 132] | 3 µM |  |  |  |  |  | 2200 nM | 1900 nM | 2400 nM
20 | O=C(Nc1nc(NC(=O)c2ccncc2)n(-c2ccc(OC(F)(F)F)cc2)n1)c1ccncc1 [Compound 65] | 5 µM | 2500 nM | 2500 nM |  |  |  |  |  | 
21 | Cc1ccccc1C(=O)Nc1nc(NC(=O)c2ccno2)n(-c2cccc(F)c2)n1 [Compound 73] | 12 µM | 2500 nM |  | 2500 nM |  |  |  |  | 
22 | Cc1ccccc1C(=O)Nc1nc(NCc2ccccc2Cl)nn1-c1ccc(OC(F)(F)F)cc1 [Compound 116] | 2 µM | > 2500 nM | > 2500 nM | > 2500 nM |  |  |  |  | 
23 | Cc1cccc(-c2nc(NC(=O)c3ccccc3C)n(-c3ccc(Cl)cc3)n2)n1 [Compound 127] | 2 µM | 1700 nM | 2100 nM | 1100 nM | 1600 nM |  |  |  | 
24 | Cc1ccccc1C(=O)Nc1nc(NC(C)(C)c2ccccc2)nn1-c1ccccc1 [Compound 152] |  | > 2500 nM |  |  |  |  |  |  | 

— US10889553B2, “Asymmetric triazole benzamide derivatives and the compositions and methods of treatment regarding the same” (NysnoBio Ireland DAC, priority 2017, dated 2021)
